In ChEMBL document CHEMBL5625187, “A facile and selective derivatization approach on kynurenine-NH2 in daptomycin, leading to the discovery of hexakynomycin to combat multidrug-resistant Gram-positive pathogens especially daptomycin-resistant bacteria” (Eur J Med Chem, 2023):

How the values were obtained:
Assay type in all cases: functional
[1] = system: Enterococcus faecium; assay: Potency index, ratio of daptomycin MIC to test compound MIC for antibacterial activity against glycopeptide-resistant Enterococcus faecium Efm-HS-0649
[2] = system: Staphylococcus aureus; assay: Antibacterial activity against vancomycin-intermediate resistant Staphylococcus aureus Mu 50 assessed as reduction in microbial growth incubated for 24 hrs by broth microdilution method
[3] = system: Staphylococcus aureus; assay: Potency index, ratio of daptomycin MIC to test compound MIC for antibacterial activity against methicillin-susceptible Staphylococcus aureus Newman ATCC 25904
[4] = system: Enterococcus faecium; assay: Antibacterial activity against glycopeptide-resistant Enterococcus faecium Efm-HS-0649 assessed as reduction in microbial growth incubated for 24 hrs by broth microdilution method
[5] = system: Staphylococcus aureus; assay: Antibacterial activity against methicillin-susceptible Staphylococcus aureus Newman ATCC 25904 assessed as reduction in microbial growth incubated for 24 hrs by broth microdilution method
[6] = system: Staphylococcus aureus; assay: Antibacterial activity against methicillin-resistant Staphylococcus aureus USA300 assessed as reduction in microbial growth incubated for 24 hrs by broth microdilution method
[7] = system: Enterococcus faecalis; assay: Antibacterial activity against vancomycin-resistant Enterococcus faecalis VREfa 20-1 assessed as reduction in microbial growth incubated for 24 hrs by broth microdilution method
[8] = system: Staphylococcus aureus; assay: Antibacterial activity against vancomycin-intermediate resistant Staphylococcus aureus ATCC 700699 assessed as reduction in microbial growth incubated for 24 hrs by broth microdilution method
[9] = system: Enterococcus faecalis; assay: Antibacterial activity against Enterococcus faecalis EFA 20-1 assessed as reduction in microbial growth incubated for 24 hrs by broth microdilution method

CCCCCCCCCC(=O)N[C@@H](Cc1c[nH]c2ccccc12)C(=O)N[C@H](CC(N)=O)C(=O)N[C@@H](CC(=O)O)C(=O)N[C@@H]1C(=O)NCC(=O)N[C@@H](CCCN)C(=O)N[C@@H](CC(=O)O)C(=O)N[C@H](C)C(=O)N[C@@H](CC(=O)O)C(=O)NCC(=O)N[C@H](CO)C(=O)N[C@@H]([C@H](C)CC(=O)O)C(=O)N[C@@H](CC(=O)c2ccccc2NCc2ccccn2)C(=O)O[C@@H]1C
Ratio [1]: 8
MIC [2]: 32 µg/mL
Ratio [3]: 8
MIC [4]: 8 µg/mL
MIC [5]: 8 µg/mL
MIC [6]: 4 µg/mL

CCCCCCCCCC(=O)N[C@@H](Cc1c[nH]c2ccccc12)C(=O)N[C@H](CC(N)=O)C(=O)N[C@@H](CC(=O)O)C(=O)N[C@@H]1C(=O)NCC(=O)N[C@@H](CCCN)C(=O)N[C@@H](CC(=O)O)C(=O)N[C@H](C)C(=O)N[C@@H](CC(=O)O)C(=O)NCC(=O)N[C@H](CO)C(=O)N[C@@H]([C@H](C)CC(=O)O)C(=O)N[C@@H](CC(=O)c2ccccc2NCCCC)C(=O)O[C@@H]1C (single isomer, unassigned)
Ratio [1]: 2
MIC [2]: 4 µg/mL
Ratio [3]: 2
MIC [4]: 1 µg/mL
MIC [5]: 0.5 µg/mL
MIC [6]: 0.5 µg/mL

CCCCCCCCCC(=O)N[C@@H](Cc1c[nH]c2ccccc12)C(=O)N[C@H](CC(N)=O)C(=O)N[C@@H](CC(=O)O)C(=O)N[C@@H]1C(=O)NCC(=O)N[C@@H](CCCN)C(=O)N[C@@H](CC(=O)O)C(=O)N[C@H](C)C(=O)N[C@@H](CC(=O)O)C(=O)NCC(=O)N[C@H](CO)C(=O)N[C@@H]([C@H](C)CC(=O)O)C(=O)N[C@@H](CC(=O)c2ccccc2NCC)C(=O)O[C@@H]1C (single isomer, unassigned)
Ratio [1]: 2
MIC [2]: 4 µg/mL
Ratio [3]: 2
MIC [4]: 1 µg/mL
MIC [5]: 1 µg/mL
MIC [6]: 1 µg/mL

CCCCCCCCCC(=O)N[C@@H](Cc1c[nH]c2ccccc12)C(=O)N[C@H](CC(N)=O)C(=O)N[C@@H](CC(=O)O)C(=O)N[C@@H]1C(=O)NCC(=O)N[C@@H](CCCN)C(=O)N[C@@H](CC(=O)O)C(=O)N[C@H](C)C(=O)N[C@@H](CC(=O)O)C(=O)NCC(=O)N[C@H](CO)C(=O)N[C@@H]([C@H](C)CC(=O)O)C(=O)N[C@@H](CC(=O)c2ccccc2NCCC)C(=O)O[C@@H]1C
Ratio [1]: 2
MIC [2]: 4 µg/mL
Ratio [3]: 2
MIC [4]: 1 µg/mL
MIC [5]: 1 µg/mL
MIC [6]: 0.5 µg/mL

CCCCCCCCCC(=O)N[C@@H](Cc1c[nH]c2ccccc12)C(=O)N[C@H](CC(N)=O)C(=O)N[C@@H](CC(=O)O)C(=O)N[C@@H]1C(=O)NCC(=O)N[C@@H](CCCN)C(=O)N[C@@H](CC(=O)O)C(=O)N[C@H](C)C(=O)N[C@@H](CC(=O)O)C(=O)NCC(=O)N[C@H](CO)C(=O)N[C@@H]([C@H](C)CC(=O)O)C(=O)N[C@@H](CC(=O)c2ccccc2NC)C(=O)O[C@@H]1C
Ratio [1]: 2
MIC [2]: 4 µg/mL
Ratio [3]: 2
MIC [4]: 4 µg/mL
MIC [5]: 1 µg/mL
MIC [6]: 1 µg/mL

CN[C@H](CC(C)C)C(=O)N[C@H]1C(=O)N[C@@H](CC(N)=O)C(=O)N[C@H]2C(=O)N[C@H]3C(=O)N[C@H](C(=O)N[C@H](C(=O)O)c4cc(O)cc(O)c4-c4cc3ccc4O)[C@H](O)c3ccc(c(Cl)c3)Oc3cc2cc(c3O[C@@H]2O[C@H](CO)[C@@H](O)[C@H](O)[C@H]2O[C@H]2C[C@](C)(N)[C@H](O)[C@H](C)O2)Oc2ccc(cc2Cl)[C@H]1O [VANCOMYCIN]
MIC [7]: > 16 µg/mL
MIC [2]: 8 µg/mL
MIC [8]: 8 µg/mL
MIC [4]: > 128 µg/mL
MIC [9]: 1 µg/mL

CCCCCCCCCC(=O)N[C@@H](Cc1c[nH]c2ccccc12)C(=O)N[C@H](CC(N)=O)C(=O)N[C@@H](CC(=O)O)C(=O)N[C@@H]1C(=O)NCC(=O)N[C@@H](CCCN)C(=O)N[C@@H](CC(=O)O)C(=O)N[C@H](C)C(=O)N[C@@H](CC(=O)O)C(=O)NCC(=O)N[C@H](CO)C(=O)N[C@@H]([C@H](C)CC(=O)O)C(=O)N[C@@H](CC(=O)c2ccccc2NCCCCC)C(=O)O[C@@H]1C (single isomer, unassigned)
Ratio [1]: 2
MIC [2]: 2 µg/mL
Ratio [3]: 2
MIC [4]: 0.5 µg/mL
MIC [5]: 0.5 µg/mL
MIC [6]: 0.125 µg/mL

CCCCCCCCCC(=O)N[C@@H](Cc1c[nH]c2ccccc12)C(=O)N[C@H](CC(N)=O)C(=O)N[C@@H](CC(=O)O)C(=O)N[C@@H]1C(=O)NCC(=O)N[C@@H](CCCN)C(=O)N[C@@H](CC(=O)O)C(=O)N[C@H](C)C(=O)N[C@@H](CC(=O)O)C(=O)NCC(=O)N[C@H](CO)C(=O)N[C@@H]([C@H](C)CC(=O)O)C(=O)N[C@@H](CC(=O)c2ccccc2NCc2ccccc2)C(=O)O[C@@H]1C
Ratio [1]: 4
MIC [2]: 4 µg/mL
Ratio [3]: 4
MIC [4]: 1 µg/mL
MIC [5]: 0.5 µg/mL
MIC [6]: 0.5 µg/mL

CCCCCCCCCC(=O)N[C@@H](Cc1c[nH]c2ccccc12)C(=O)N[C@H](CC(N)=O)C(=O)N[C@@H](CC(=O)O)C(=O)N[C@@H]1C(=O)NCC(=O)N[C@@H](CCCN)C(=O)N[C@@H](CC(=O)O)C(=O)N[C@H](C)C(=O)N[C@@H](CC(=O)O)C(=O)NCC(=O)N[C@H](CO)C(=O)N[C@@H]([C@H](C)CC(=O)O)C(=O)N[C@@H](CC(=O)c2ccccc2NCCCCCCC)C(=O)O[C@@H]1C (single isomer, unassigned)
Ratio [1]: 2
MIC [2]: 2 µg/mL
Ratio [3]: 2
MIC [4]: 0.25 µg/mL
MIC [5]: 0.5 µg/mL
MIC [6]: 0.25 µg/mL

CCCCCCCCCC(=O)N[C@@H](Cc1c[nH]c2ccccc12)C(=O)N[C@H](CC(N)=O)C(=O)N[C@@H](CC(=O)O)C(=O)N[C@@H]1C(=O)NCC(=O)N[C@@H](CCCN)C(=O)N[C@@H](CC(=O)O)C(=O)N[C@H](C)C(=O)N[C@@H](CC(=O)O)C(=O)NCC(=O)N[C@H](CO)C(=O)N[C@@H]([C@H](C)CC(=O)O)C(=O)N[C@@H](CC(=O)c2ccccc2NCCCCCCCC)C(=O)O[C@@H]1C (single isomer, unassigned)
Ratio [1]: 2
MIC [2]: 4 µg/mL
Ratio [3]: 2
MIC [4]: 0.5 µg/mL
MIC [5]: 1 µg/mL
MIC [6]: 1 µg/mL

CCCCCCCCCNc1ccccc1C(=O)C[C@@H]1NC(=O)[C@H]([C@H](C)CC(=O)O)NC(=O)[C@@H](CO)NC(=O)CNC(=O)[C@H](CC(=O)O)NC(=O)[C@@H](C)NC(=O)[C@H](CC(=O)O)NC(=O)[C@H](CCCN)NC(=O)CNC(=O)[C@@H](NC(=O)[C@H](CC(=O)O)NC(=O)[C@@H](CC(N)=O)NC(=O)[C@H](Cc2c[nH]c3ccccc23)NC(=O)CCCCCCCCC)[C@@H](C)OC1=O (single isomer, unassigned)
Ratio [1]: 2
MIC [2]: 4 µg/mL
Ratio [3]: 2
MIC [4]: 1 µg/mL
MIC [5]: 2 µg/mL
MIC [6]: 1 µg/mL

C#CC[S+](C)CCCNc1ccccc1C(=O)C[C@@H]1NC(=O)[C@H]([C@H](C)CC(=O)O)NC(=O)[C@@H](CO)NC(=O)CNC(=O)[C@H](CC(=O)O)NC(=O)[C@@H](C)NC(=O)[C@H](CC(=O)O)NC(=O)[C@H](CCCN)NC(=O)CNC(=O)[C@@H](NC(=O)[C@H](CC(=O)O)NC(=O)[C@@H](CC(N)=O)NC(=O)[C@H](Cc2c[nH]c3ccccc23)NC(=O)CCCCCCCCC)[C@@H](C)OC1=O (stereo not given in full)
MIC [2]: > 128 µg/mL
MIC [4]: 128 µg/mL
MIC [5]: 128 µg/mL
MIC [6]: 128 µg/mL

CCCCCCCCCCNc1ccccc1C(=O)C[C@@H]1NC(=O)[C@H]([C@H](C)CC(=O)O)NC(=O)[C@@H](CO)NC(=O)CNC(=O)[C@H](CC(=O)O)NC(=O)[C@@H](C)NC(=O)[C@H](CC(=O)O)NC(=O)[C@H](CCCN)NC(=O)CNC(=O)[C@@H](NC(=O)[C@H](CC(=O)O)NC(=O)[C@@H](CC(N)=O)NC(=O)[C@H](Cc2c[nH]c3ccccc23)NC(=O)CCCCCCCCC)[C@@H](C)OC1=O (single isomer, unassigned)
Ratio [1]: 2
MIC [2]: 4 µg/mL
Ratio [3]: 2
MIC [4]: 2 µg/mL
MIC [5]: 2 µg/mL
MIC [6]: 2 µg/mL
